Data taken from PubChem BioAssay (NCI).
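Step 1: Grow cells in 96-well plates. Step 2: Expose to compound for 48 hours at 5 concentrations. Step 3: Interpolate endpoints linearly; if unreached, use highest concentration. The concentration for 50% growth inhibition is given as GI50. At the TGI there is no net growth.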

Legend:
Experiment in all cases: NCI anticancer screen, dose series, 48 h
MDA-MB-435 = system: MDA-MB-435
UACC-62 melanoma = system: UACC-62 melanoma
NCI-H460 lung = system: NCI-H460 lung
SR leukemia = system: SR leukemia
HOP-62 NSCLC = system: HOP-62 NSCLC
HS 578T breast = system: HS 578T breast
MCF7 breast = system: MCF7 breast
IGROV1 ovarian = system: IGROV1 ovarian
SNB-75 CNS = system: SNB-75 CNS
A549 NSCLC = system: A549 NSCLC
SN12C renal = system: SN12C renal
HCT-116 colon = system: HCT-116 colon
SW-620 colon = system: SW-620 colon
CAKI-1 renal = system: CAKI-1 renal
UACC-257 melanoma = system: UACC-257 melanoma
CCRF-CEM leukemia = system: CCRF-CEM leukemia
ACHN renal = system: ACHN renal
EKVX NSCLC = system: EKVX NSCLC
NCI/ADR-RES ovarian = system: NCI/ADR-RES ovarian
SK-MEL-28 melanoma = system: SK-MEL-28 melanoma
SK-MEL-2 melanoma = system: SK-MEL-2 melanoma
HCT-15 colon = system: HCT-15 colon
SF-295 CNS = system: SF-295 CNS
HOP-92 NSCLC = system: HOP-92 NSCLC
PC-3 prostate = system: PC-3 prostate
TK-10 renal = system: TK-10 renal
SF-268 CNS = system: SF-268 CNS
UO-31 renal = system: UO-31 renal
LOX IMVI melanoma = system: LOX IMVI melanoma
SNB-19 CNS = system: SNB-19 CNS
COLO 205 colon = system: COLO 205 colon
SK-MEL-5 melanoma = system: SK-MEL-5 melanoma
MOLT-4 leukemia = system: MOLT-4 leukemia
NCI-H522 lung = system: NCI-H522 lung
KM12 colon = system: KM12 colon
RXF 393 renal = system: RXF 393 renal
T-47D breast = system: T-47D breast
786-0 renal = system: 786-0 renal
MDA-MB-231 breast = system: MDA-MB-231 breast
OVCAR-4 ovarian = system: OVCAR-4 ovarian
HT29 colon = system: HT29 colon
K-562 leukemia = system: K-562 leukemia
OVCAR-3 ovarian = system: OVCAR-3 ovarian
NCI-H23 lung = system: NCI-H23 lung
NCI-H226 lung = system: NCI-H226 lung
BT-549 breast = system: BT-549 breast
OVCAR-5 ovarian = system: OVCAR-5 ovarian
SK-OV-3 ovarian = system: SK-OV-3 ovarian
DU-145 prostate = system: DU-145 prostate
M14 melanoma = system: M14 melanoma
SF-539 CNS = system: SF-539 CNS
MALME-3M melanoma = system: MALME-3M melanoma
A498 renal = system: A498 renal
U251 CNS = system: U251 CNS
HCC-2998 colon = system: HCC-2998 colon
RPMI-8226 leukemia = system: RPMI-8226 leukemia
OVCAR-8 ovarian = system: OVCAR-8 ovarian
HL-60(TB) leukemia = system: HL-60(TB) leukemia

## C[C@H](CCCNCCCNCCCN)[C@H]1CC[C@H]2[C@@H]3[C@H](OCCCN)C[C@H]4C[C@H](OCCCN)CC[C@]4(C)[C@H]3C[C@H](OCCCN)[C@]12C
MDA-MB-435
  GI50: 0.34 µM
  TGI: 1.14 µM
UACC-62 melanoma
  GI50: 0.871 µM
  TGI: 13.3 µM
NCI-H460 lung
  GI50: 4.72 µM
  TGI: > 34.7 µM
SR leukemia
  GI50: 0.326 µM
  TGI: 1.66 µM
HOP-62 NSCLC
  GI50: 1.44 µM
  TGI: > 31.5 µM
HS 578T breast
  GI50: 0.918 µM
  TGI: 12.5 µM
MCF7 breast
  GI50: 6.46 µM
  TGI: > 26.4 µM
IGROV1 ovarian
  GI50: 0.421 µM
  TGI: 8.86 µM
SNB-75 CNS
  GI50: 8.49 µM
  TGI: > 83.9 µM
A549 NSCLC
  GI50: 2.08 µM
  TGI: 18.3 µM
SN12C renal
  GI50: 1.61 µM
  TGI: 24.2 µM
HCT-116 colon
  GI50: 0.482 µM
  TGI: 10.2 µM
SW-620 colon
  GI50: 0.98 µM
  TGI: 8.2 µM
CAKI-1 renal
  GI50: 16 µM
  TGI: > 100 µM
UACC-257 melanoma
  GI50: 9.63 µM
  TGI: 59.5 µM
CCRF-CEM leukemia
  GI50: 3.82 µM
  TGI: 31.1 µM
ACHN renal
  GI50: 1.41 µM
  TGI: 27.7 µM
EKVX NSCLC
  GI50: 5.43 µM
  TGI: > 43.9 µM
NCI/ADR-RES ovarian
  GI50: 4.75 µM
  TGI: 69.3 µM
SK-MEL-28 melanoma
  GI50: 0.573 µM
  TGI: 4.13 µM
SK-MEL-2 melanoma
  GI50: 47.5 µM
  TGI: > 100 µM
HCT-15 colon
  GI50: 3.14 µM
  TGI: > 100 µM
SF-295 CNS
  GI50: 1.33 µM
  TGI: 23.9 µM
HOP-92 NSCLC
  GI50: 0.584 µM
  TGI: 11.9 µM
PC-3 prostate
  GI50: 18.3 µM
  TGI: > 100 µM
TK-10 renal
  GI50: 2.18 µM
  TGI: 51.6 µM
SF-268 CNS
  GI50: 1.54 µM
  TGI: 16.1 µM
UO-31 renal
  GI50: 0.913 µM
  TGI: > 58.2 µM
LOX IMVI melanoma
  GI50: 0.888 µM
  TGI: 9.41 µM
SNB-19 CNS
  GI50: 1.92 µM
  TGI: > 83.4 µM
COLO 205 colon
  GI50: 1.1 µM
  TGI: 15.3 µM
SK-MEL-5 melanoma
  GI50: 0.626 µM
  TGI: 3.29 µM
MOLT-4 leukemia
  GI50: 1.09 µM
  TGI: 8.12 µM
NCI-H522 lung
  GI50: 11.1 µM
  TGI: 58.6 µM
KM12 colon
  GI50: 0.355 µM
  TGI: 6.05 µM
RXF 393 renal
  GI50: 6.29 µM
  TGI: 46.9 µM
T-47D breast
  GI50: 2.59 µM
  TGI: > 37 µM
786-0 renal
  GI50: 0.824 µM
  TGI: 5.49 µM
MDA-MB-231 breast
  GI50: 0.652 µM
  TGI: 18.8 µM
OVCAR-4 ovarian
  GI50: > 45.2 µM
  TGI: > 100 µM
HT29 colon
  GI50: 0.821 µM
  TGI: 13.8 µM
K-562 leukemia
  GI50: 0.458 µM
  TGI: 3.6 µM
OVCAR-3 ovarian
  GI50: 14.6 µM
  TGI: > 62.5 µM
NCI-H23 lung
  GI50: 1.48 µM
  TGI: 10.8 µM
NCI-H226 lung
  TGI: > 76.7 µM
BT-549 breast
  GI50: 0.923 µM
  TGI: 5.1 µM
OVCAR-5 ovarian
  GI50: 17.5 µM
  TGI: > 100 µM
SK-OV-3 ovarian
  GI50: 35.7 µM
  TGI: > 100 µM
DU-145 prostate
  GI50: 3.34 µM
  TGI: 21.3 µM
M14 melanoma
  GI50: 0.874 µM
  TGI: 3.88 µM
SF-539 CNS
  GI50: 0.98 µM
  TGI: 3.46 µM
MALME-3M melanoma
  GI50: 4.27 µM
  TGI: 26 µM
A498 renal
  GI50: > 100 µM
  TGI: > 100 µM
U251 CNS
  GI50: 2.65 µM
  TGI: 19.7 µM
HCC-2998 colon
  GI50: 0.653 µM
  TGI: 5.02 µM
RPMI-8226 leukemia
  GI50: 0.418 µM
  TGI: 1.54 µM
OVCAR-8 ovarian
  GI50: 2.27 µM
  TGI: > 55.8 µM

## CC/C(=C(/c1ccc(O)cc1)c1ccc(OCCN2CCCCC2)cc1)c1ccc(OC)cc1
MDA-MB-435
  GI50: 1.58 µM
  TGI: 3.1 µM
UACC-62 melanoma
  GI50: 2.01 µM
  TGI: 4.03 µM
NCI-H460 lung
  GI50: 2.17 µM
  TGI: 4.72 µM
SR leukemia
  GI50: 0.215 µM
  TGI: 0.649 µM
HOP-62 NSCLC
  GI50: 1.83 µM
  TGI: 3.91 µM
HS 578T breast
  GI50: 2.09 µM
  TGI: 5.52 µM
MCF7 breast
  GI50: 0.0707 µM
  TGI: 2.08 µM
IGROV1 ovarian
  GI50: 2.5 µM
  TGI: 8.95 µM
SNB-75 CNS
  GI50: 10.4 µM
  TGI: 23.3 µM
A549 NSCLC
  GI50: 4.11 µM
  TGI: 15.4 µM
SN12C renal
  GI50: 2.82 µM
  TGI: 11.3 µM
HCT-116 colon
  GI50: 1.15 µM
  TGI: 2.51 µM
SW-620 colon
  GI50: 1.77 µM
  TGI: 3.89 µM
CCRF-CEM leukemia
  GI50: 0.513 µM
  TGI: 5.09 µM
ACHN renal
  GI50: 1.94 µM
  TGI: 4.15 µM
EKVX NSCLC
  GI50: 4.05 µM
  TGI: 18.4 µM
NCI/ADR-RES ovarian
  GI50: 8.15 µM
  TGI: 22.4 µM
HL-60(TB) leukemia
  GI50: 1.99 µM
  TGI: 4.1 µM
SK-MEL-28 melanoma
  GI50: 1.78 µM
  TGI: 3.48 µM
SK-MEL-2 melanoma
  GI50: 2.04 µM
  TGI: 4.83 µM
HCT-15 colon
  GI50: 1.45 µM
  TGI: 5.46 µM
SF-295 CNS
  GI50: 1.79 µM
  TGI: 3.62 µM
HOP-92 NSCLC
  GI50: 0.665 µM
  TGI: 2.38 µM
PC-3 prostate
  GI50: 1.41 µM
  TGI: 3.34 µM
TK-10 renal
  GI50: 14.7 µM
  TGI: 29.2 µM
SF-268 CNS
  GI50: 2.14 µM
  TGI: 6.38 µM
UO-31 renal
  GI50: 1.13 µM
  TGI: 2.49 µM
LOX IMVI melanoma
  GI50: 1.63 µM
  TGI: 3.27 µM
SNB-19 CNS
  GI50: 1.97 µM
  TGI: 4.62 µM
COLO 205 colon
  GI50: 1.49 µM
  TGI: 3.12 µM
SK-MEL-5 melanoma
  GI50: 1.79 µM
  TGI: 3.21 µM
MOLT-4 leukemia
  GI50: 1.6 µM
  TGI: 5.71 µM
NCI-H522 lung
  GI50: 3.41 µM
  TGI: 13.7 µM
KM12 colon
  GI50: 2.63 µM
  TGI: 12.2 µM
T-47D breast
  GI50: 1.01 µM
  TGI: 3 µM
786-0 renal
  GI50: 1.28 µM
  TGI: 2.74 µM
MDA-MB-231 breast
  GI50: 1.61 µM
  TGI: 3.84 µM
OVCAR-4 ovarian
  GI50: 1.88 µM
  TGI: 5.99 µM
HT29 colon
  GI50: 1.21 µM
  TGI: 3.67 µM
K-562 leukemia
  GI50: 0.29 µM
  TGI: 1.16 µM
OVCAR-3 ovarian
  GI50: 1.6 µM
  TGI: 4.23 µM
NCI-H23 lung
  GI50: 10.1 µM
  TGI: 23.4 µM
NCI-H226 lung
  GI50: 16.8 µM
  TGI: 37.9 µM
BT-549 breast
  GI50: 1.6 µM
  TGI: 3.19 µM
OVCAR-5 ovarian
  GI50: 3.25 µM
  TGI: 14.8 µM
SK-OV-3 ovarian
  GI50: 14 µM
  TGI: 27.3 µM
DU-145 prostate
  GI50: 4.52 µM
  TGI: 18.1 µM
M14 melanoma
  GI50: 1.73 µM
  TGI: 3.38 µM
SF-539 CNS
  GI50: 1.66 µM
  TGI: 3.19 µM
MALME-3M melanoma
  GI50: 1.42 µM
  TGI: 2.98 µM
A498 renal
  GI50: 4.29 µM
  TGI: 17.6 µM
U251 CNS
  GI50: 1.85 µM
  TGI: 4.22 µM
HCC-2998 colon
  GI50: 2.9 µM
  TGI: 9.13 µM
RPMI-8226 leukemia
  GI50: 1.24 µM
  TGI: 3.61 µM
OVCAR-8 ovarian
  GI50: 2.45 µM
  TGI: 6.02 µM
